Test results from ChEMBL document CHEMBL1165986, “Xestosaprols from the Indonesian marine sponge Xestospongia sp” (J Nat Prod, 2010).

Target: Beta-secretase 1 (Homo sapiens, UniProt P56817)
Test: Inhibition of BACE1 mediated cleavage of amyloid precursor protein by chemiluminescence assay

Sequence of Beta-secretase 1 (P56817 whole entry): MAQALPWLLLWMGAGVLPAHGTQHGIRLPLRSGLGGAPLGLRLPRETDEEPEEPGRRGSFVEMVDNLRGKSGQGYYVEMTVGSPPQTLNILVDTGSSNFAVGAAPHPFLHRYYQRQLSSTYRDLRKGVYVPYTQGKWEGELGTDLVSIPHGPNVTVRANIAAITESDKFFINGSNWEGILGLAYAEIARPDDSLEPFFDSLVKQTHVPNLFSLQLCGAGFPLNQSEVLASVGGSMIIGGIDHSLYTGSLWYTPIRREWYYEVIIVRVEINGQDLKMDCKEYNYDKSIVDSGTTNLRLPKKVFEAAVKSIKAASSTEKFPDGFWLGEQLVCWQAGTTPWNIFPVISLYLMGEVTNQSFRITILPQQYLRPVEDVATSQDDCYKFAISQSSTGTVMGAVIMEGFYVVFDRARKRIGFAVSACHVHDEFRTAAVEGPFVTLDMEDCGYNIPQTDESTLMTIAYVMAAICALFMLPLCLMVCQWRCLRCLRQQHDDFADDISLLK

| IC50 [µM] | inhibition | SMILES |
| --- | --- | --- |
| 135 | Dose-dependent effect | C[C@@]12CC[C@H](O)[C@@H]3COC(=C31)C(=O)c1cc3c(OCCO)cccc3cc12 [XESTOSAPROL F] |
| 155 | Dose-dependent effect | C[C@@]12CC[C@H](O)[C@@H]3COC(=C31)C(=O)c1cc3c(O)cccc3cc12 [XESTOSAPROL G] |
| 82 | Dose-dependent effect | C[C@@]12CC[C@@H](O)[C@@H]3COC(=C31)C(=O)c1cc3c(OCCO)cccc3cc12 [XESTOSAPROL H] |
| 163 | Dose-dependent effect | C[C@@]12CC[C@@H](O)[C@@H]3COC(=C31)C(=O)c1cc3ccccc3cc12 [XESTOSAPROL I] |
| 90 | Dose-dependent effect | COc1cccc2cc3c(cc12)[C@]1(C)CC[C@H](O)[C@@H]2COC(=C21)C3=O [XESTOSAPROL J] |
| 93 | Dose-dependent effect | C[C@@]12CC[C@H](O)[C@@H]3COC(=C31)C(=O)c1cc3cccc(O)c3cc12 [XESTOSAPROL K] |
| 98 | Dose-dependent effect | C[C@@]12CC[C@H](O)[C@@H]3COC(=C31)C(=O)c1cc3ccccc3cc12 [XESTOSAPROL L] |
| 104 | Dose-dependent effect | C[C@@]12CCCc3coc(c31)C(=O)c1cc3ccccc3cc12 [XESTOSAPROL M] |
